Here are results for 52 compounds from patent US8492377B2, “MTKI quinazoline derivatives” (Janssen Pharmaceutica NV, priority 2006, dated 2013).

Some results are limits rather than exact numbers.

The target in one test is human Src (Homo sapiens, UniProt P12931). In words: C1: c-Src filter assay. Type of test: biochemical. To be noted: 5 ng human Src, 1.0 μM unlabeled ATP, poly(Glu,Tyr) 4:1, 25° C., 10 minutes; read-out: C1: c-SRC filter pIC50 (converted). As to the method: The in vitro inhibition of c-Src kinase was assessed using the glass-fiber filter technology as described by Davies, S. P. et al., Biochem J. (2000), 351; p. 95-105.
In the glass-fiber filter technology the activity of the kinase is measured using an appropriate substrate that is incubated with the aforementioned kinase protein in the presence of (^33P) radiolabeled ATP. (^33P) Phosporylation of the substrate is subsequently measured as radioactivity bound on a glassfiber-filter.
In an alternative filter based assay the final kinase activity was assessed using a phosphostorage screen instead of scintilation counting.
In this assay the Src kinase reaction is performed at 25° C. for 10 minutes in a 96-well microtiterplate. The 25 μl reaction volume contains 8 mM MOPS pH 7.0, 20 mM Mg-acetate, 0.2 mM Na2EDTA, 0.5 mM MnCl2, 1.0 μM unlabeled ATP, 0.2 μCi AT^33P, 20 ng poly(Glu,Tyr) 4:1 and 5 ng human Src.
The reaction is stopped by adding 5 μl of a 3% phosphoric acid solution. 5 μl of the reaction mixture is then spotted onto a Filtermat A filter (Wallac) and washed 3 times for 5 min. in 75 mM phosphoric acid and 1 time for 5 min. in methanol prior to drying and quantification on the Typhoon (Amersham) using a phosphostorage screen.

In the next test the target is human Fyn (Homo sapiens, UniProt P06241). The experiment in a line: C2: Fyn kinase assay. The class given is biochemical. To be noted: 5 ng human Fyn, 1.0 μM unlabeled ATP, poly(Glu,Tyr) 4:1, 25° C., 10 minutes; read-out: C2: Fyn kinase pIC50 (converted). As to the method:
In this assay the Fyn kinase reaction is performed at 25° C. for 10 minutes in a 96-well microtiterplate. The 25 μl reaction volume contains 8 mM MOPS pH 7.0, 20 mM Mg-acetate, 0.2 mM Na2EDTA, 0.5 mM MnCl2, 1.0 μM unlabeled ATP, 0.2 μCi AT^33P, 20 ng poly(Glu,Tyr) 4:1 and 5 ng human Fyn.
The reaction is stopped by adding 5 μl of a 3% phosphoric acid solution. 5 μl of the reaction mixture is then spotted onto a Filtermat A filter (Wallac) and washed 3 times for 5 min. in 75 mM phosphoric acid and 1 time for 5 min. in methanol prior to drying and scintillation counting.

Sequence of human Fyn (P06241 whole entry): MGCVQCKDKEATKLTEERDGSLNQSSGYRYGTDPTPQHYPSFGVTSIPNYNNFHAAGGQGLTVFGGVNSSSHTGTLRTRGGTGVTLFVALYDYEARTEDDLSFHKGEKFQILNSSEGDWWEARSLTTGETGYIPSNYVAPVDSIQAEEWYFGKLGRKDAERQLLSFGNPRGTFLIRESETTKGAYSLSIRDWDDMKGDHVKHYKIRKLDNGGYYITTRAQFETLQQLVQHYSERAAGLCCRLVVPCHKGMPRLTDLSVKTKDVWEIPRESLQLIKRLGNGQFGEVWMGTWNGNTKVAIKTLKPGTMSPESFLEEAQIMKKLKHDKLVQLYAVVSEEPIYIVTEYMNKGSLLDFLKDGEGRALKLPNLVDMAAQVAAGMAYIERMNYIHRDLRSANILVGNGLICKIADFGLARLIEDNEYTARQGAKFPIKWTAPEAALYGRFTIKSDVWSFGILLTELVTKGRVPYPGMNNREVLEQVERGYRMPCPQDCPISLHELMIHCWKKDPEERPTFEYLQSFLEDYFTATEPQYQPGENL
Sequence of human Src (P12931 whole entry): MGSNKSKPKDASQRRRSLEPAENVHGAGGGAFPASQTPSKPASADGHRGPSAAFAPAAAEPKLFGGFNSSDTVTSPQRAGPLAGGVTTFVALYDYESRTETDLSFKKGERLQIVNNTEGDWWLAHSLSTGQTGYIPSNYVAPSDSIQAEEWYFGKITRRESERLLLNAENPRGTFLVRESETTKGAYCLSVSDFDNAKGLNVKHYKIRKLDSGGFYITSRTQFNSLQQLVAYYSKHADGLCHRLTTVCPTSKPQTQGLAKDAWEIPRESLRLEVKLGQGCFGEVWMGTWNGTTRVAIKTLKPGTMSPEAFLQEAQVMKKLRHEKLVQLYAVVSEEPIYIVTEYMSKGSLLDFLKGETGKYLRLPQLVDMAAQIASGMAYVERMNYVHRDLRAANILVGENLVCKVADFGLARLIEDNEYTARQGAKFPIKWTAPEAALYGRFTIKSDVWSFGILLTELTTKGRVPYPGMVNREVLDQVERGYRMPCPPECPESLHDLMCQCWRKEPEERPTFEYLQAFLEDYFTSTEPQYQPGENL

With `C[C@H]1C(=O)NCCCOc2cc3c(ncnc3cc2O)Nc2c(ccc3c2OCO3)CN1C` [Compound A40], the IC50 at human Src was more than 10000 nM; on human Fyn, more than 1000 nM. For `CN1CCN(C(=O)OC(C)(C)C)CCCOc2cc3c(ncnc3cc2O)Nc2c(ccc3c2OCO3)C1` [Compound A24], in that order: more than 10000 nM and more than 1000 nM. For `CN(CCO)CCCOc1cc2ncnc3c2cc1OCCCCCN(C)Cc1ccc2c(c1N3)OCO2` [Compound B15], in that order: 562 nM and 0.174 nM. With `CN(CCO)CCCOc1cc2ncnc3c2cc1OCCCCCN(C)Cc1cc(Br)c2c(c1N3)OCO2` [Compound B72], the IC50 at human Fyn was less than 1000 nM. On the same count and under the same terms, the result for `COc1cc2ncnc3c2cc1OCCCCCN(C(=O)OCc1ccccc1)Cc1ccc2c(c1N3)OCO2` [Compound A8] reads 204 nM; that for `CN1CCN(C(=O)OC(C)(C)C)CCCOc2cc3c(ncnc3cc2OCCCN2CCC(S(C)(=O)=O)CC2)Nc2c(ccc3c2OCO3)C1` [Compound A54], 69.2 nM.

Consider `CN1CCNCCCOc2cc3c(ncnc3cc2O)Nc2c(ccc3c2OCO3)C1` [Compound A23], for which the IC50 at human Src is more than 10000 nM; on human Fyn it was more than 1000 nM. In the case of `CCOC(CCOc1cc2ncnc3c2cc1OCCCCCN(C)Cc1ccc2c(c1N3)OCO2)OCC` [Compound B32], the IC50 at human Fyn was 38 nM. Turning to `CN1CCCCCOc2cc3c(ncnc3cc2OCCCN2CCOCC2)Nc2c(ccc3c2OCO3)C1` [Compound B18], the figures for the IC50 at human Src and on human Fyn were 468 nM and less than 1 nM, respectively. Regarding `C[C@H]1C(=O)NCCCOc2cc3c(ncnc3cc2OCCCN2CCOCC2)Nc2c(ccc3c2OCO3)CN1C` [Compound B6], at human Fyn, the IC50 is 38 nM. For the compound `CN1CCCCCOc2cc3c(ncnc3cc2OCCCN2CCCC2)Nc2c(ccc3c2OCO3)C1` [Compound B21], the IC50 on human Src was 575 nM; at human Fyn it was 0.0575 nM. `COCCNCCCOc1cc2ncnc3c2cc1OCCCNC(=O)[C@H](C)N(C)Cc1ccc2c(c1N3)OCO2` [Compound B38]: at human Fyn, the IC50 was 138 nM.

Turning to `COc1cc2ncnc3c2cc1OCCCN(C)C(=O)[C@H](C)N(C)Cc1cc(Cl)c2c(c1N3)OCO2` [Compound B76], the IC50 on human Fyn was 316 nM.

For `C[C@H]1C(=O)NCCCOc2cc3c(ncnc3cc2OCCCN2CCC(CCS(C)(=O)=O)CC2)Nc2c(ccc3c2OCO3)CN1C` [Compound B55], on human Fyn, the IC50 is 115 nM.

As to `COCCOCCOc1cc2ncnc3c2cc1OCCCN(C(=O)OC(C)(C)C)CCN(C)Cc1ccc2c(c1N3)OCO2` [Compound A28], the results for the IC50 on human Src and at human Fyn were more than 10000 nM and less than 1000 nM, respectively. Regarding `C[C@H]1C(=O)NCCCOc2cc3c(ncnc3cc2OCCCN2CCN(C)CC2)Nc2c(ccc3c2OCO3)CN1C` [Compound B58], the IC50 on human Fyn is 33.1 nM. In the case of `CN1CCCCCOc2cc3c(ncnc3cc2O)Nc2c(ccc3c2OCO3)C1` [Compound A12], the results for the IC50 on human Src and on human Fyn were more than 10000 nM and 34.7 nM, respectively. `CN1CCC(COc2cc3ncnc4c3cc2OCCCCCN(C)Cc2ccc3c(c2N4)OCO3)CC1` [Compound B22]: the IC50 at human Src is 1290 nM; on human Fyn it was more than 1000 nM. For `CN1CCCCCOc2cc3c(ncnc3cc2OC[C@@H](O)CN2CCS(=O)(=O)CC2)Nc2c(ccc3c2OCO3)C1` [Compound B24], in that order: 676 nM and less than 1000 nM. The matching figures for `CN(CCO)CCCOc1cc2ncnc3c2cc1OCCCN(C(=O)OC(C)(C)C)CCN(C)Cc1ccc2c(c1N3)OCO2` [Compound A29]: 2630 nM and 43.7 nM. For `CN1CCCCCOc2cc3c(ncnc3cc2OCCCN2CCCCC2)Nc2c(ccc3c2OCO3)C1` [Compound B19], in that order: 617 nM and 1.23 nM. On to `Brc1cc2c(c3c1OCO3)Nc1ncnc3cc(OCCCN4CCCC4)c(cc13)OCCCCCNC2` [Compound B27], for which the IC50 at human Fyn is less than 1000 nM. For `COCCOCCOc1cc2ncnc3c2cc1OCCCCCN(C)Cc1ccc2c(c1N3)OCO2` [Compound B31], the IC50 on human Src was 2630 nM; on human Fyn, less than 1 nM. For the compound `CN1CCCCCOc2cc3c(ncnc3cc2OCCCN2CCN(CCO)CC2)Nc2c(cc(Br)c3c2OCO3)C1` [Compound B66], the IC50 at human Fyn is less than 1000 nM. Take `CN1CCCCCOc2cc3c(ncnc3cc2OCCCNC(=O)CCS(C)(=O)=O)Nc2c(ccc3c2OCO3)C1` [Compound B16]: the results for the IC50 on human Src and at human Fyn were 2290 nM and less than 1000 nM, respectively. As for `C[C@H]1C(=O)NCCCOc2cc3c(ncnc3cc2OCCCN(C)CCO)Nc2c(ccc3c2OCO3)CN1C` [Compound B40], the IC50 on human Fyn was 214 nM.

`COc1cc2ncnc3c2cc1OCCCNC(=O)[C@H](C)N(C)Cc1cc(Cl)c2c(c1N3)OCO2` [Compound B74]: on human Fyn, the IC50 was 69.2 nM. As to `CN1CCCCCOc2cc3c(ncnc3cc2OCCCN)Nc2c(ccc3c2OCO3)C1` [Compound A57], the IC50 was 933 nM at human Src and 18.2 nM at human Fyn.

Take `COc1cc2ncnc3c2cc1OCCCN(S(=O)(=O)c1ccccc1[N+](=O)[O-])CCN(C)Cc1ccc2c(c1N3)OCO2` [Compound A20]: the results for the IC50 at human Src and at human Fyn were 186 nM and 6.92 nM, respectively. For `C[C@H]1C(=O)NCCCOc2cc3c(ncnc3cc2OCCCN2CCOCC2)Nc2c(ccc3c2OCO3)CN1C` [Compound A42], at human Fyn, the IC50 was 64.6 nM. On the same count and under the same terms, the result for `COc1cc2ncnc3c2cc1OCCCN(C)C(=O)[C@H](C)N(C)Cc1ccc2c(c1N3)OCO2` [Compound B78] reads more than 1000 nM; that for `C[C@H]1C(=O)NCCCOc2cc3c(ncnc3cc2OC[C@@H](O)CN2CCC(O)CC2)Nc2c(ccc3c2OCO3)CN1C` [Compound B62], 200 nM; that for `COCCOc1cc2ncnc3c2cc1OCCCCCNCc1ccc2c(c1N3)OCO2` [Compound B33], 13.2 nM. On the same count and under the same terms, the result for `Oc1cc2ncnc3c2cc1OCCCCCNCc1cc(Br)c2c(c1N3)OCO2` [Compound B44] reads 209 nM; that for `CC(=O)NCCN1CCN(CCCOc2cc3ncnc4c3cc2OCCCNC(=O)[C@H](C)N(C)Cc2ccc3c(c2N4)OCO3)CC1` [Compound B60], 37.2 nM. Same read-out and setting: the result for `C[C@H]1C(=O)NCCCOc2cc3c(ncnc3cc2OCCCNCCO)Nc2c(ccc3c2OCO3)CN1C` [Compound B39] reads 129 nM. With `C[C@H]1C(=O)NCCCOc2cc3c(ncnc3cc2OCCCN2CCC(S(C)(=O)=O)CC2)Nc2c(ccc3c2OCO3)CN1C` [Compound B56], the IC50 on human Fyn is 85.1 nM.

Regarding `COCCOCCOc1cc2ncnc3c2cc1OCCCNC(=O)[C@H](C)N(C)Cc1ccc2c(c1N3)OCO2` [Compound B7], the IC50 on human Fyn was 91.2 nM. On the same count and under the same terms, the result for `C[C@H]1C(=O)NCCCOc2cc3c(ncnc3cc2OCCCN2CCN(C)CC2)Nc2c(ccc3c2OCO3)CN1C` [Compound B57] reads 26.3 nM; that for `C[C@H]1C(=O)NCCCOc2cc3c(ncnc3cc2OCCCN2CCN(C(=O)CCS(C)(=O)=O)CC2)Nc2c(ccc3c2OCO3)CN1C` [Compound B59], 42.7 nM. For `CN1CCCCCOc2cc3c(ncnc3cc2O)Nc2c(cc(Br)c3c2OCO3)C1` [Compound B48], the IC50 on human Fyn was 89.1 nM. The same measure, in the same setting: the result for `COc1cc2ncnc3c2cc1OCCCCN(C)CCc1ccc2c(c1N3)OCO2` [Compound B53] reads 110 nM; that for `C[C@H]1C(=O)NCCCOc2cc3c(ncnc3cc2OCCCN2CCS(=O)(=O)CC2)Nc2c(ccc3c2OCO3)CN1C` [Compound B36], 38 nM.

In the case of `C[C@H]1C(=O)NCCCOc2cc3c(ncnc3cc2OCCCN2CCN(CCO)CC2)Nc2c(ccc3c2OCO3)CN1C` [Compound B54], on human Fyn, the IC50 is 51.3 nM. Still for that read-out and setting: the result for `COc1cc2ncnc3c2cc1OCCCCCN(C(=O)OCc1ccccc1)Cc1cc(Oc2ccc(C)nc2)c2c(c1N3)OCO2` [Compound A68] reads more than 1000 nM. Same read-out and setting: the result for `CN1CCN(CCCOc2cc3ncnc4c3cc2OCCCCCNCc2cc(Br)c3c(c2N4)OCO3)CC1` [Compound B28] reads less than 1000 nM; that for `COCCOc1cc2ncnc3c2cc1OCCCNC(=O)[C@H](C)N(C)Cc1ccc2c(c1N3)OCO2` [Compound B41], 81.3 nM. Same read-out and setting: the result for `CN1CCNCCCOc2cc3c(ncnc3cc2OCCCN2CCC(S(C)(=O)=O)CC2)Nc2c(ccc3c2OCO3)C1` [Compound B14] reads 19.5 nM. For `COc1cc2ncnc3c2cc1OCCCCN(C(=O)OCc1ccccc1)CCc1ccc2c(c1N3)OCO2` [Compound B50], the IC50 at human Fyn is more than 1000 nM.

Take `COc1cc2ncnc3c2cc1OCCCCCN(C)Cc1ccc2c(c1N3)OCO2` [Compound A11]: on human Fyn, the IC50 was 18.2 nM. On the same count and under the same terms, the result for `CN1CCN(C(=O)OC(C)(C)C)CCCOc2cc3c(ncnc3cc2OC(=O)OC(C)(C)C)Nc2c(ccc3c2OCO3)C1` [Compound A25] reads more than 1000 nM. On the same count and under the same terms, the result for `C[C@H]1C(=O)NCCCOc2cc3c(ncnc3cc2OC[C@@H]2CO2)Nc2c(ccc3c2OCO3)CN1C` [Compound B42] reads 282 nM.
